Patent US10329272B2 (priority 2015, dated 2019)

Columns and labels:
[1] = test system: Monographella nivalis (Microdochium nivale); test: Monographella Nivalis (Microdochium Nivale)/Liquid Culture (Foot Rot Cereals); type: cell-based; conditions: liquid culture, growth inhibition photometrically 4-5 days after application, compared to untreated control
Method: Monographella Nivalis (Microdochium Nivale)/Liquid Culture (Foot Rot Cereals)
(§1) Conidia of the fungus from cryogenic storage are directly mixed into nutrient broth (PDB potato dextrose broth). After placing a (DMSO) solution of test compound into a microtiter plate (96-well format), the nutrient broth containing the fungal spores is added. The test plates are incubated at 24° C. and the inhibition of growth is determined photometrically 4-5 days after application.

[2] = test system: Mycosphaerella graminicola (Septoria tritici); test: microbe, parasite or virus in culture; type: cell-based; conditions: Zymoseptoria tritici, read-out: control of Mycosphaerella graminicola
[3] = test system: Magnaporthe grisea (Pyricularia oryzae); test: microbe, parasite or virus in culture; type: cell-based; conditions: read-out: control of Magnaporthe grisea
[4] = test system: Botryotinia fuckeliana (Botrytis cinerea); test: Botryotinia fuckeliana (Botrytis cinerea)/Liquid Culture (Gray Mould); type: cell-based; conditions: liquid culture, growth inhibition photometrically 3-4 days after application, compared to untreated control
Method: Biological Examples Botryotinia fuckeliana (Botrytis cinerea)/Liquid Culture (Gray Mould)
as §1, with “(Vogels” for “(PDB potato dextrose”, “3-4” for “4-5”

Sclerotinia sclerotiorum = test: Sclerotinia sclerotiorum/Liquid Culture (Cottony Rot); type: cell-based; conditions: liquid culture, growth inhibition photometrically 3-4 days after application, compared to untreated control
Method: Sclerotinia sclerotiorum/Liquid Culture (Cottony Rot)
as §1, with “Mycelia fragments of a newly grown liquid culture” for “Conidia”, “fungus” for “fungus from cryogenic storage”, “(Vogels” for “(PDB potato dextrose”, “format)” for “format),”, “material” for “spores”, “3-4” for “4-5”

Gaeumannomyces graminis = test: Gaeumannomyces Graminis/Liquid Culture (Take-all of Cereals); type: cell-based; conditions: liquid culture, growth inhibition photometrically 4-5 days after application, compared to untreated control
Method: Gaeumannomyces Graminis/Liquid Culture (Take-all of Cereals)
as §1, with “Mycelial fragments of” for “Conidia of”, “storage were” for “storage are”

[5] = test system: Glomerella lagenarium (Colletotrichum lagenarium); test: Glomerella Lagenarium (Colletotrichum Lagenarium)/Liquid Culture (Anthracnose); type: cell-based; conditions: Colletotrichum orbiculare, liquid culture, growth inhibition photometrically 3-4 days after application, compared to untreated control
Method: Glomerella Lagenarium (Colletotrichum Lagenarium)/Liquid Culture (Anthracnose)
as §1, with “measured” for “determined”, “3-4” for “4-5”

Fusarium culmorum = test: microbe, parasite or virus in culture; type: cell-based; conditions: read-out: control of Fusarium culmorum

Cn1nc2c(Br)cccc2c1C1=NC(C)(C)Cc2ccccc21 [Compound E-5, 1-(7-bromo-2-methyl-indazol-3-yl)-3,3-dimethyl-4H-isoquinoline] showed an inhibition of growth at 20 ppm [1] of at least 80%, an inhibition of growth at 20 ppm [2] of at least 80% and a melting point of 161 to 162 °C. For the same compound, the inhibition of growth at 20 ppm [3] was at least 80%, the inhibition of growth at 20 ppm [4] was at least 80% and the inhibition of growth at 20 ppm (Sclerotinia sclerotiorum) was at least 80%.

In the case of Cn1nc2c(Br)cccc2c1C1=NC(C)(C)C(F)(F)c2ccccc21 [Compound E-10, 1-(7-bromo-2-methyl-indazol-3-yl)-4,4-difluoro-3,3-dimethyl-isoquinoline], the inhibition of growth at 20 ppm [1] is reported as at least 80%, the melting point is reported as 157 to 158 °C and the inhibition of growth at 20 ppm (Gaeumannomyces graminis) is reported as at least 80%. For the same compound, the inhibition of growth at 20 ppm [3] was at least 80%, the inhibition of growth at 20 ppm [4] was at least 80% and the inhibition of growth at 20 ppm (Sclerotinia sclerotiorum) was at least 80%. The inhibition of growth at 20 ppm [5] was at least 80%.

Work on Cc1cccc2c(C3=NC(C)(C)C(F)(F)c4ccccc43)n(C)nc12 [Compound E-11, 1-(2,7-dimethylindazol-3-yl)-4,4-difluoro-3,3-dimethyl-isoquinoline] yielded an inhibition of growth at 20 ppm [1] of at least 80%, an inhibition of growth at 20 ppm (Fusarium culmorum) of at least 80% and a melting point of 136 to 137 °C. The inhibition of growth at 20 ppm [3] was at least 80%, the inhibition of growth at 20 ppm [4] was at least 80% and the inhibition of growth at 20 ppm (Sclerotinia sclerotiorum) was at least 80%. For the same compound, the inhibition of growth at 20 ppm [5] was at least 80%.

Cc1cccc2c(C3=NC(C)(C)C(F)(F)c4c(F)cccc43)n(C)nc12 [Compound E-20, 1-(2,7-dimethylindazol-3-yl)-4,4,5-trifluoro-3,3-dimethyl-isoquinoline] gave an inhibition of growth at 20 ppm [1] of at least 80%, a melting point of 164 to 165 °C and an inhibition of growth at 20 ppm (Gaeumannomyces graminis) of at least 80%. It also gave an inhibition of growth at 20 ppm [3] of at least 80%, an inhibition of growth at 20 ppm [4] of at least 80% and an inhibition of growth at 20 ppm [5] of at least 80%.

Cn1nc2cc(F)ccc2c1C1=NC(C)(C)C(C)(C)c2c(F)cccc21 [Compound E-21, 5-fluoro-1-(6-fluoro-2-methyl-indazol-3-yl)-3,3,4,4-tetramethyl-isoquinoline] gave an inhibition of growth at 20 ppm [1] of at least 80%, an inhibition of growth at 20 ppm (Fusarium culmorum) of at least 80% and a melting point of 131 to 133 °C. For the same compound, the inhibition of growth at 20 ppm [3] was at least 80%, the inhibition of growth at 20 ppm [4] was at least 80% and the inhibition of growth at 20 ppm [5] was at least 80%.

Work on Cc1ccc2c(C3=NC(C)(C)C(F)(F)c4ccccc43)n(C)nc2c1C [Compound E-25, 4,4-difluoro-3,3-dimethyl-1-(2,6,7-trimethylindazol-3-yl)isoquinoline] yielded an inhibition of growth at 20 ppm [1] of at least 80%, an inhibition of growth at 20 ppm (Fusarium culmorum) of at least 80% and a melting point of 154 to 157 °C. It also gave an inhibition of growth at 20 ppm [3] of at least 80%, an inhibition of growth at 20 ppm [4] of at least 80% and an inhibition of growth at 20 ppm (Sclerotinia sclerotiorum) of at least 80%. It also gave an inhibition of growth at 20 ppm [5] of at least 80%.

Compound Cc1ccc2c(C3=NC(C)(C)C(=O)c4ccccc43)n(C)nc2c1C [Compound E-29, 3,3-dimethyl-1-(2,6,7-trimethylindazol-3-yl)isoquinolin-4-one] has an inhibition of growth at 20 ppm [1] of at least 80%, an inhibition of growth at 20 ppm (Fusarium culmorum) of at least 80% and a melting point of 174 to 177 °C. The inhibition of growth at 20 ppm [3] was at least 80%, the inhibition of growth at 20 ppm [4] was at least 80% and the inhibition of growth at 20 ppm (Sclerotinia sclerotiorum) was at least 80%. The inhibition of growth at 20 ppm [5] was at least 80%.

In the case of CC1(C)N=C(c2onc3c(Cl)cccc23)c2ccccc2C1(F)F [Compound E-31, 7-chloro-3-(4,4-difluoro-3,3-dimethyl-1-isoquinolyl)-2,1-benzoxazole], the inhibition of growth at 20 ppm (Gaeumannomyces graminis) is reported as at least 80%, the inhibition of growth at 20 ppm [3] is reported as at least 80% and the inhibition of growth at 20 ppm [4] is reported as at least 80%. It also gave an inhibition of growth at 20 ppm (Sclerotinia sclerotiorum) of at least 80% and an inhibition of growth at 20 ppm [5] of at least 80%.

Cc1cccc2c(C3=NC(C)(C)C(C)(C)c4c(F)cccc43)snc12 [Compound E-32, 3-(5-fluoro-3,3,4,4-tetramethyl-1-isoquinolyl)-7-methyl-2,1-benzothiazole] showed an inhibition of growth at 20 ppm [1] of at least 80%, an inhibition of growth at 20 ppm (Fusarium culmorum) of at least 80% and a melting point of 96 to 98 °C. It also gave an inhibition of growth at 20 ppm (Gaeumannomyces graminis) of at least 80%, an inhibition of growth at 20 ppm [3] of at least 80% and an inhibition of growth at 20 ppm [4] of at least 80%. For the same compound, the inhibition of growth at 20 ppm (Sclerotinia sclerotiorum) was at least 80% and the inhibition of growth at 20 ppm [5] was at least 80%.
